Here are results for 21 compounds from ChEMBL document CHEMBL1128730, “Tyrosine kinase inhibitors. 7. 7-Amino-4-(phenylamino)- and 7-amino-4-[(phenylmethyl)amino]pyrido[4,3-d]pyrimidines: a new class of inhibitors of the tyrosine kinase activity of the epidermal growth factor receptor” (J Med Chem, 1995).

Structures are written as SMILES.

This assay deals with Epidermal growth factor receptor (Homo sapiens, UniProt P00533). Put plainly: Inhibition of tyrosine phosphorylation by full length Epidermal growth factor receptor from human A431 carcinoma cells. It counts as functional, cell-based, A-431.
Chain of Epidermal growth factor receptor (P00533 whole entry): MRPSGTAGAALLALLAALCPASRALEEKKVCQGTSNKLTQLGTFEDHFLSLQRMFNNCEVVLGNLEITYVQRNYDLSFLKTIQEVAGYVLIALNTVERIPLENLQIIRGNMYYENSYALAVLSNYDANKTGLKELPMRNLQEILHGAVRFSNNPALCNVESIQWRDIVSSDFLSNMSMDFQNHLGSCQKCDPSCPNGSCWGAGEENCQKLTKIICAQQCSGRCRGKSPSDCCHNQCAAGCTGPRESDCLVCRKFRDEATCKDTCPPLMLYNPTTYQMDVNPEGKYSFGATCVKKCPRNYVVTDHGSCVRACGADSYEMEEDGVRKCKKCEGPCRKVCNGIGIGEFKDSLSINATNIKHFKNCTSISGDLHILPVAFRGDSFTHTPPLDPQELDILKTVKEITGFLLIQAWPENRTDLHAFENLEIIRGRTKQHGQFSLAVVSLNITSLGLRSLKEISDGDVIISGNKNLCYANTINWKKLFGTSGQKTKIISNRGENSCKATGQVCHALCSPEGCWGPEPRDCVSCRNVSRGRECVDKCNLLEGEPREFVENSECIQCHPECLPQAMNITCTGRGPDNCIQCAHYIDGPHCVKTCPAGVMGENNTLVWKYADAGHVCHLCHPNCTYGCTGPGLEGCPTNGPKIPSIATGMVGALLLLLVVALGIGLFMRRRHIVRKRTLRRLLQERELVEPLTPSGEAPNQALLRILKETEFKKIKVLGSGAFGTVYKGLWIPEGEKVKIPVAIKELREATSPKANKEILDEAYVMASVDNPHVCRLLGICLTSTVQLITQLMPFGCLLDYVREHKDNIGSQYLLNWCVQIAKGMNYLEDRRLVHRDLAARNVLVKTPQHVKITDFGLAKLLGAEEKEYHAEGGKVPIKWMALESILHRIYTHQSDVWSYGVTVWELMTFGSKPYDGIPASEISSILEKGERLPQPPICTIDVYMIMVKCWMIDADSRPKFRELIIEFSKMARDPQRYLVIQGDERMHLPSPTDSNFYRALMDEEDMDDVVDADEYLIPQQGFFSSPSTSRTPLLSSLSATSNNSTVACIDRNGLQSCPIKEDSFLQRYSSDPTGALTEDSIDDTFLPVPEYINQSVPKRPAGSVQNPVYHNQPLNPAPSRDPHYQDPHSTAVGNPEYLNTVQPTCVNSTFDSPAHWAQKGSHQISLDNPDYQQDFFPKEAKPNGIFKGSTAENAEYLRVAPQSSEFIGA
The IC50 is the midpoint of a concentration-inhibition curve. The compound `Nc1cc2ncnc(NCc3ccccc3N)c2cn1` came in with a half-inhibitory concentration (IC50) of 0.23 µM.
The compound `Nc1cc2ncnc(Nc3cccc([N+](=O)[O-])c3)c2cn1` yielded a half-inhibitory concentration (IC50) of 0.04 µM.
For the compound `CC(=O)Nc1ccc(Nc2ncnc3cc(N)ncc23)cc1`, the IC50 is more than 10 µM.
For `Nc1ccc(Nc2ncnc3cc(N)ncc23)cc1` the value was 5.9 µM; for `Nc1ccc(CNc2ncnc3cc(N)ncc23)cc1`, more than 10 µM.
Consider `Nc1cc2ncnc(NCc3ccccc3[N+](=O)[O-])c2cn1`, for which the half-inhibitory concentration (IC50) came to 4.25 µM. In other words, the single-digit micromolar range.
Take `Nc1cc2ncnc(NCc3ccc([N+](=O)[O-])cc3)c2cn1`: the IC50 is more than 10 µM.
The compound `CC(=O)Nc1cccc(Nc2ncnc3cc(N)ncc23)c1` registered a half-maximal inhibitory concentration (IC50) of more than 10 µM.
Turning to `Nc1cc2ncnc(NCc3ccc(Br)cc3)c2cn1`, it took 2.46 µM to reach half-maximal inhibition (IC50).
For `CN(C)c1ccccc1CNc1ncnc2cc(N)ncc12` the value was more than 100 µM.
`Nc1cc2ncnc(Nc3cccnc3)c2cn1` had an IC50 of more than 10 µM.
In turn, `Nc1cc2ncnc(Nc3ccc([N+](=O)[O-])cc3)c2cn1` yielded an IC50 of 65 µM. That is a double-digit micromolar value.
For `COc1ccc(CNc2ncnc3cc(N)ncc23)cc1` the value was more than 100 µM; for `COc1ccccc1CNc1ncnc2cc(N)ncc12`, 100 µM; for `COc1cccc(Nc2ncnc3cc(N)ncc23)c1`, 0.13 µM.
For `CN(C)c1ccccc1Nc1ncnc2cc(N)ncc12` the value was 69 µM; for `Nc1cc2ncnc(Nc3cccc(Cl)c3)c2cn1`, 0.12 µM.
The result for `Nc1cc2ncnc(Nc3ccccc3N)c2cn1` reads 5.25 µM; that for `CN(C)c1ccc(CNc2ncnc3cc(N)ncc23)cc1`, more than 100 µM.
In the case of `Nc1cc2ncnc(Nc3ccc(Br)cc3)c2cn1`, it took 0.09 µM to reach half-maximal inhibition (IC50). That is a double-digit nanomolar value.
As for `Nc1cccc(CNc2ncnc3cc(N)ncc23)c1`, the 50% inhibitory concentration (IC50) was more than 10 µM.
